# Measured values: ChEMBL document CHEMBL5728971, “Small molecule inhibitors of lactate dehydrogenase and methods of use thereof” (2022)
# Several values for one entry are separate records, joined by “and”; a condition that tells them apart may be missing. Equal values may be shown once.
# Assay: Biochemical Assay: Test compounds were placed in a Greiner Bio-One (Monroe, N.C.) 1536-well black solid bottom assay plate. 200 millimolar (mM) Tris HCl, pH 7.4, 100 micromolar (μM) EDTA and 0.01% TWEEN-20™, final concentration, was used as the assay buffer. The LDHA reagent was 2 nanomolar (nM) Human LDHA (Meridian Life Science, Inc., Memphis, Tenn.), final concentration, in assay buffer.
row,IC50,Structure (SMILES)
1,< 0.1 µM,NS(=O)(=O)c1ccc(Cc2c(-c3ccc(F)c(C#CC4CC4)c3)nn(-c3nc(C(=O)O)cs3)c2CC2CC2)cc1F
2,< 0.1 µM,NS(=O)(=O)c1ccc(Cc2c(-c3ccc(F)c(C#CC4CCCC4)c3)nn(-c3nc(C(=O)O)cs3)c2CC2CC2)cc1F
3,< 0.1 µM,CC#Cc1cccc(-c2nn(-c3nc(C(=O)O)cs3)c(CC3CC3)c2Cc2ccc(S(N)(=O)=O)c(F)c2)c1
4,< 0.1 µM,NS(=O)(=O)c1ccc(Cc2c(-c3ccc(F)c(C#CCN4CCOCC4)c3)nn(-c3nc(C(=O)O)cs3)c2CC2CC2)cc1F
5,< 0.1 µM,COc1cc(-c2nn(-c3nc(C(=O)O)cs3)c(CC3CC3)c2Cc2ccc(S(N)(=O)=O)cc2)ccc1F
6,< 0.1 µM,NS(=O)(=O)c1ccc(Cc2c(-c3ccc(F)c(-c4cccc(F)c4)c3)nn(-c3nc(C(=O)O)cs3)c2C2CC2)c(F)c1
7,< 0.1 µM,COc1cccc(-c2cc(-c3nn(-c4nc(C(=O)O)cs4)c(C4CC4)c3Cc3ccc(S(N)(=O)=O)c(F)c3)ccc2F)c1
8,> 57 µM,CCOC(=O)c1csc(-n2nc(-c3ccc(F)c(C#CC4CCCC4)c3)c(Cc3ccc(S(N)(=O)=O)c(F)c3)c2CC2CC2)n1
9,in the range around 29 µM,COc1cc(-c2c(Cc3ccc(S(N)(=O)=O)cc3)c(CC3CC3)nn2-c2nc(C(=O)O)cs2)ccc1F
10,in the range around 29 µM,NS(=O)(=O)c1ccc(Cc2c(Cc3ccccc3)nn(-c3nc(C(=O)O)cs3)c2-c2ccccc2)cc1
11,in the range around 29 µM,CC#Cc1cccc(-c2nn(-c3nc(C(=O)OCC)cs3)c(CC3CC3)c2Cc2ccc(S(N)(=O)=O)c(F)c2)c1
12,< 0.1 µM,NS(=O)(=O)c1ccc(Cc2c(-c3ccc(F)c(-c4ccc(F)cc4)c3)nn(-c3nc(C(=O)O)cs3)c2C2CC2)c(F)c1
13,< 0.1 µM,NS(=O)(=O)c1ccc(Cc2c(-c3ccc(F)c(-c4cccc(F)c4)c3)nn(-c3nc(C(=O)O)cs3)c2C2CC2)cc1F
14,in the range around 29 µM,CCOC(=O)c1csc(-n2nc(-c3cccc(-c4ccccc4)c3)c(Cc3ccc(S(N)(=O)=O)cc3)c2CC2CC2)n1
15,in the range around 29 µM and > 57 µM,CCOC(=O)c1csc(-n2nc(-c3cccc(-c4ccc(C)cc4)c3)c(Cc3ccc(S(N)(=O)=O)c(F)c3)c2CC2CC2)n1

# The remaining lines, values behind:
row,Structure (SMILES),IC50
1,NS(=O)(=O)c1ccc(Cc2c(-c3cccc(-c4ccccc4)c3)nn(-c3nc(C(=O)O)cs3)c2CC2CC2)cc1,< 0.1 µM
2,NS(=O)(=O)c1ccc(Cc2c(-c3ccc(F)c(C#CC4CCNCC4)c3)nn(-c3nc(C(=O)O)cs3)c2CC2CC2)cc1F,< 0.1 µM
3,NS(=O)(=O)c1ccc(Cc2c(-c3ccc(F)c(-c4ccccc4)c3)nn(-c3nc(C(=O)O)cs3)c2CC2CC2)cc1,< 0.1 µM
4,COc1cccc(-c2cc(-c3nn(-c4nc(C(=O)O)cs4)c(C4CC4)c3Cc3ccc(S(N)(=O)=O)cc3F)ccc2F)c1,< 0.1 µM
5,CCOC(=O)c1csc(-n2nc(-c3ccccc3)c(Cc3ccc(S(N)(=O)=O)cc3)c2C2CC2)n1,> 57 µM
6,CC(C)(O)C#Cc1cc(-c2nn(-c3nc(C(=O)O)cs3)c(CC3CC3)c2Cc2ccc(S(N)(=O)=O)c(F)c2)ccc1F,< 0.1 µM
7,Cc1ccc(-c2cc(-c3nn(-c4nc(C(=O)O)cs4)c(C4CC4)c3Cc3ccc(S(N)(=O)=O)cc3F)ccc2F)cc1,< 0.1 µM
8,CCOC(=O)c1csc(-n2nc(C3CCCCC3)c(Oc3ccc(S(N)(=O)=O)cc3)c2-c2ccccc2)n1,> 57 µM
9,C=C(C)C#Cc1cc(-c2nn(-c3nc(C(=O)O)cs3)c(CC3CC3)c2Cc2ccc(S(N)(=O)=O)c(F)c2)ccc1F,< 0.1 µM
10,NS(=O)(=O)c1ccc(Cc2c(-c3cccc(N4CCOCC4)c3)nn(-c3ncc(C(=O)O)s3)c2CC2CC2)cc1F,< 0.1 µM
11,CN1CC=C(c2cc(-c3nn(-c4nc(C(=O)O)cs4)c(CC4CC4)c3Cc3ccc(S(N)(=O)=O)c(F)c3)ccc2F)CC1,< 0.1 µM
12,C#Cc1c(Cc2ccc(S(N)(=O)=O)cc2)c(-c2ccccc2)nn1-c1nc(C(=O)O)cs1,in the range around 29 µM
13,CCOC(=O)c1csc(-n2nc(-c3ccccc3)c(Oc3ccc(S(N)(=O)=O)cc3)c2C2CCCCC2)n1,> 57 µM
